How the values were obtained:
Type in all cases: in vivo
Rhipicephalus sanguineus = Rhipicephalus sanguineus in-vitro contact test, adult brown dog ticks (RHIPSA Cont); settings: 48 h, after 48 hours, read-out: activity (efficacy: 100% means all ticks are dead or moribund); for pest or weed control at 1 µg/cm2, 100 g/ha: application rate 1 μg/cm^2 (=100 g/ha); for pest or weed control at 5 µg/cm2, 500 g/ha: application rate 5 μg/cm^2 (=500 g/ha)
Summary of the method: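 Compound in acetone (9 mg/mL stock, diluted to test concentration) is coated onto inner walls of glass tubes by rotation for 2 h at 30 rpm. Efficacy is read after 48 h: ticks are tapped down and held on a 45-50° C plate for at most 5 min, and immotile or uncoordinated ones that fail to climb away count as dead or moribund.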

Myzus persicae = Myzus persicae oral test; settings: 120 h, read-out: activity (mortality)
Summary of the method: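 Percent mortality was recorded at day 5, where 0% means no aphids killed. Compound prepared from an acetone concentrate diluted in water and combined with IPL41 medium containing sugar was offered to mixed-stage green peach aphids, which sucked it through a parafilm seal.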

[1] = test system: Musca domestica strain WHO—N; assay: Musca domestica test (MUSCDO surface treatment & contact assay); settings: exposure 30 minutes, 24 hours after contact, read-out: efficacy (mortality); for mortality at 4 mg/m2: surface concentration 4 mg/m^2, glazed tile; for mortality at 20 mg/m2: surface concentration 20 mg/m^2, glazed tile
Summary of the method: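 Compound dissolved in acetone (2 mg/ml) with 2000 ppm rapeseed oil methyl ester and pipetted onto glazed tile; after acetone evaporation, adult flies exposed to dried surface for 30 minutes. Mortality (%) scored 24 hours after contact.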

[2] = test system: Aedes aegypti strain MONHEIM; assay: Aedes aegypti test (AEDSAE surface treatment & contact assay); settings: exposure 30 minutes, 24 hours after contact, read-out: efficacy (mortality); for mortality at 4 mg/m2: surface concentration 4 mg/m^2, glazed tile; for mortality at 20 mg/m2: surface concentration 20 mg/m^2, glazed tile
Summary of the method: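 Compound dissolved in acetone (2 mg/ml) with 2000 ppm rapeseed oil methyl ester, pipetted onto glazed tile and dried. Adult mosquitoes exposed on the surface for 30 min; percent mortality scored 24 h after contact.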

Nezara viridula = Nezara viridula spray test; settings: in Hordeum vulgare, 96 h, application rate 100 g/ha, barley plants, larvae, after 4 days
Summary of the method: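 Barley plants infested with N. viridula larvae were sprayed with compound in acetone/DMF diluted with water containing 1000 ppm alkylarylpolyglycol ether emulsifier. Mortality (%) was scored after 4 days; 100% means all bugs killed, 0% none.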

[3] = test system: Anopheles funestus strain FUMOZ-R; assay: Anopheles funestus test (ANPHFU surface treatment & contact assay); settings: exposure 30 minutes, 24 hours after contact, read-out: efficacy (mortality); for mortality at 4 mg/m2: surface concentration 4 mg/m^2, glazed tile; for mortality at 20 mg/m2: surface concentration 20 mg/m^2, glazed tile
Summary of the method: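 Adult FUMOZ-R mosquitoes were exposed 30 min to glazed tiles treated with compound in acetone plus 2000 ppm rapeseed oil methyl ester, after solvent evaporation. Percent mortality was scored 24 h after contact.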

Row | SMILES | pest or weed control at 1 µg/cm2, 100 g/ha (Rhipicephalus sanguineus) [%] | pest or weed control at 5 µg/cm2, 500 g/ha (Rhipicephalus sanguineus) [%] | mortality at 4 ppm (Myzus persicae) [%] | mortality at 4 mg/m2 [1] [%] | mortality at 20 mg/m2 [1] [%] | mortality at 4 mg/m2 [2] [%] | mortality at 20 mg/m2 [2] [%] | mortality at 100 g/ha (Nezara viridula) [%] | mortality at 0.8 ppm (Myzus persicae) [%] | mortality at 4 mg/m2 [3] [%] | mortality at 20 mg/m2 [3] [%]
1 | Cc1nc([C@H](C)NC(=O)c2cc(Cl)cc(C#N)c2)n(-c2ccc(C#N)cn2)n1 [II-61] | 100 | 100 | 100 | 80 to 100 | 80 to 100 | 80 to 100 | 80 to 100 | 100 | – | – | –
2 | Cc1nc([C@H](C)NC(=O)c2cc(Cl)cc(C(F)F)c2)n(-c2ccc(C#N)cn2)n1 [II-65] | 100 | 100 | 100 | 80 to 100 | 80 to 100 | 80 to 100 | 80 to 100 | 100 | – | – | –
3 | C[C@H](NC(=O)c1cc(OC(F)F)cc(OC(F)F)c1)c1ncnn1-c1ccc(C#N)cn1 [II-77] | – | 100 | 100 | 80 to 100 | 80 to 100 | 80 to 100 | 80 to 100 | 100 | 90 | 80 to 100 | 80 to 100
4 | C[C@H](NC(=O)c1cc(Cl)cc(C(F)(F)F)c1)c1ncnn1-c1ccc(N(C)C(=O)C2CC2)cn1 [II-79] | 80 | 80 | – | – | – | 80 to 100 | 80 to 100 | 100 | 100 | 80 to 100 | 80 to 100
5 | C[C@H](NC(=O)c1cc(C(F)(F)F)cc(C(F)(F)F)c1)c1ncnn1-c1ccc(C(N)=O)cn1 [II-81] | – | – | 100 | – | 80 to 100 | 80 to 100 | 80 to 100 | 100 | 100 | 80 to 100 | 80 to 100
6 | C[C@H](NC(=O)c1cc(Br)cc(C(F)F)c1)c1ncnn1-c1ccc(C#N)cn1 [II-83] | 100 | 100 | 100 | 80 to 100 | 80 to 100 | 80 to 100 | 80 to 100 | – | – | 80 to 100 | 80 to 100
7 | Cc1nc([C@H](C)NC(=O)c2cc(C(F)(F)F)cc(C(F)(F)F)c2)n(-c2ccc(C(=O)N(C)CC#N)cn2)n1 [II-99] | 100 | 100 | 100 | 80 to 100 | 80 to 100 | – | 80 to 100 | 100 | 100 | – | –
8 | C[C@H](NC(=O)c1cc(C(F)F)cc(C(F)F)c1)c1ncnn1-c1ccc(C#N)cn1 [II-101] | 100 | 100 | 100 | 80 to 100 | 80 to 100 | 80 to 100 | 80 to 100 | 100 | 100 | 80 to 100 | 80 to 100
9 | C[C@H](NC(=O)c1cc(OC(F)(F)F)cc(C(F)F)c1)c1ncnn1-c1ccc(C#N)cn1 [II-111] | 100 | 100 | 100 | – | 80 to 100 | 80 to 100 | – | 100 | 90 | – | –
10 | C[C@H](NC(=O)c1cc(OC(F)F)cc(C(F)F)c1)c1ncnn1-c1ccc(C#N)cn1 [II-116] | 100 | 100 | 100 | 80 to 100 | 80 to 100 | 80 to 100 | 80 to 100 | 100 | 100 | – | 80 to 100
11 | Cc1nc([C@H](C)NC(=O)c2cc(OC(F)(F)F)cc(C(F)F)c2)n(-c2ccc(C#N)cn2)n1 [II-117] | 100 | 100 | 100 | 80 to 100 | 80 to 100 | 80 to 100 | 80 to 100 | 100 | 100 | – | –
